{"source": "patent US4704395A", "about": "“Cyclic ether esters of 2-substituted-6-(substituted and unsubstituted) dihydrolysergic acid useful as 5HT receptor antagonists” (Eli Lilly and Company, priority 1985, dated 1987)"}
{"target": "T1, 5HT2 receptors (Rattus norvegicus, UniProt P14842)", "T1 construct": "their external jugular veins and thoracic aortas dissected free of connective tissue; from tissue; host or cells: external jugular vein of male Wistar rats", "T1 sequence (P14842 whole entry)": "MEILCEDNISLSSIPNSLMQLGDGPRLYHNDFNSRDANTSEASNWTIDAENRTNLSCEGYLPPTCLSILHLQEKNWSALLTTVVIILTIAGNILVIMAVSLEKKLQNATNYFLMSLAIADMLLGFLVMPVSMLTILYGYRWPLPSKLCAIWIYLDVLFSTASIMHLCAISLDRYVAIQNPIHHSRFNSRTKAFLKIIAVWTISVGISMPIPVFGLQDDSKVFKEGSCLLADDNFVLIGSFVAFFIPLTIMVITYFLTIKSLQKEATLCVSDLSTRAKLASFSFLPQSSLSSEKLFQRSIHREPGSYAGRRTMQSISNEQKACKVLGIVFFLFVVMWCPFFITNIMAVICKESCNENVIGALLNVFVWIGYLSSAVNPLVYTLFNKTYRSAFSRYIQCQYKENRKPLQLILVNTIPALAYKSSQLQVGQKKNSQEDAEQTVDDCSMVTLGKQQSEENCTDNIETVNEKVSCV", "experiment": "Apparent dissociation constants (KB) for 5HT2 receptors determined in the rat jugular vein (antagonism of serotonin contraction)", "conditions": "antagonist incubated one hour, 37° C., maleate salt, read-out: Apparent Dissociation Constants for 5HT2 receptors, -Log Kb ± S.E. (converted)", "protocol": "An initial optimum resting force of 1 and 4 g was applied to the jugular vein and aorta, respectively. […] Exp. Ther., 205, 400 (1978). Alpha receptor antagonist activity was evaluated in the aorta.", "units": {"Kb": "nM"}}
{"smiles": "CC(C)n1cc2c3c(cccc31)[C@H]1C[C@@H](C(=O)OC3CCOCC3)CN(C)[C@@H]1C2", "Kb": 0.129}
{"smiles": "CC(C)n1cc2c3c(cccc31)[C@H]1C[C@@H](C(=O)OCC3CCCO3)CN(C)[C@@H]1C2", "note": "(stereo partly shown)", "Kb": 6.31}
{"smiles": "CC(C)n1cc2c3c(cccc31)[C@H]1C[C@@H](C(=O)OCC3CCCCO3)CN(C)[C@@H]1C2", "note": "(stereo partly shown)", "Kb": 1.91}
{"smiles": "CC(C)n1cc2c3c(cccc31)[C@H]1C[C@@H](C(=O)OCCCC3CCCO3)CN(C)[C@@H]1C2", "note": "(stereo partly shown)", "Kb": 5.62}
